In patent publication US20050153932A1, “Controlled muscle relaxation” (priority 2003, published 2005):
Like-named read-outs stand apart in the source and are kept apart here.

Key:
[1] = system: M. adductor pollicis contractions; experiment: Vecuronium-induced block of M. adductor pollicis contractions (TOF stimulation) and effect of Org 25969 in anaesthetised Rhesus monkeys; format: in vivo, Rhesus monkey
Method: • T1: first twitch: amplitude of the first response to TOF stimulation, expressed as percentage of control T1 (%). • T4/T1 ratio: the ratio of T4 over T1 (within one TOF stimulus) expressed as decimals.
Female Rhesus monkeys were starved overnight and sedated with 10 mg·kg^−1 ketamine i.m., followed by i.v. injection of 25 mg·kg^−1 pentobarbitone sodium and subsequent infusion of 5-10 mg·kg^−1hr^−1. The animals were intubated and ventilated with a mixture of oxygen and nitrous oxide (2:3), using a ventilator. The expired CO2 level was measured using a capnograph. The tidal volume was adjusted to obtain a CO2 level of approximately 4.5%. Oxygen saturation was measured via a probe on the earlobe using a pulse oxymeter. Blood pressure was measured non-invasively with a cuff placed on the tail. The ECG was recorded and heart rate was measured. Rectal temperature was measured and body temperature was kept at 37-38° C. using a heating blanket. The right hand and right arm of the animal were fixed to a frame using surgical tape. The thumb was connected to a force transducer. A pre-load of 200-500 mN was applied. Two needle electrode were placed near the N. ulnaris and the nerve was stimulated with train-of-four pulses (pulse duration: 2 ms, train-frequency: 0.07 Hz). At the end of the experiment, the animals were allowed to recover from anesthesia. Appropriate recovery care was given to all animals. Two groups of monkeys were used to assess the reversal effects of Org 25969 against the neuromuscular blocking agents rocuronium (Esmeron®/Zemuron®) and vecuronium (Norcuron®). In the first group, animals initially received an intravenous bolus injection of a 1×ED90 dose of rocuronium bromide to induce neuromuscular block, followed by spontaneous recovery of the twitches. After complete recovery of the twitches, each group received a second and larger 5×ED90 dose of rocuronium followed by spontaneous recovery in one subgroup, whereas the other subgroup received an intravenous bolus dose of 1150 nmol·kg^−1 Org 25969 as soon as all twitches had disappeared. In the vecuronium groups of animals, the same protocol was used, but rocuronium was replaced by vecuronium. Rocuronium bromide and vecuronium bromide were dissolved in a citric acid/phosphate/mannitol buffer (pH 4.0). Org 25969 was dissolved in saline.

[2] = system: rocuronium-induced block; experiment: Reversal of rocuronium-induced block in several animal models; format: in vivo; settings: guinea pigs, cats and monkeys
[3] = Org 25969 with rocuronium; neutral pH and 25° C.; cited from earlier work
[4] = Org 25969 with rapacuronium; compared with rocuronium (about 15.10^6 M^−1); cited from earlier work
[5] = Org 25969 with vecuronium; cited from earlier work
[6] = Org 25969 with pancuronium; cited from earlier work
[7] = system: neuromuscular block in a patient; settings: cited from earlier work; for Time to >80% block: value (range)
[8] = 5× ED90 vecuronium + 1150 nmol · kg^−1 Org 25969 i.v.
[9] = 5× ED90 vecuronium in the subgroup given 1150 nmol · kg^−1 Org 25969 once all twitches had disappeared
[10] = rocuronium 0.45 mg.kg−1, n = 50
[11] = rocuronium 0.6 mg.kg−1, n = 142

SMILES: O=C(O)CCSC[C@H]1O[C@@H]2O[C@H]3[C@H](O)[C@@H](O)[C@@H](O[C@H]4[C@H](O)[C@@H](O)[C@@H](O[C@H]5[C@H](O)[C@@H](O)[C@@H](O[C@H]6[C@H](O)[C@@H](O)[C@@H](O[C@H]7[C@H](O)[C@@H](O)[C@@H](O[C@H]8[C@H](O)[C@@H](O)[C@@H](O[C@H]9[C@H](O)[C@@H](O)[C@@H](O[C@H]1[C@H](O)[C@H]2O)O[C@@H]9CSCCC(=O)O)O[C@@H]8CSCCC(=O)O)O[C@@H]7CSCCC(=O)O)O[C@@H]6CSCCC(=O)O)O[C@@H]5CSCCC(=O)O)O[C@@H]4CSCCC(=O)O)O[C@@H]3CSCCC(=O)O [Org 25969, 6-per-deoxy-6-per-(2-carboxyethyl)thio-γ-cyclodextrin]
- effect on recovery from vecuronium-induced block (in words) ([1]; 1150 nmol·kg^−1 Org 25969 i.v. after 5×ED90 vecuronium): initial improvement of the time to 25% and 50% recovery values, but the recovery slowed down
- 0.50-0.90 TOF ratio interval [1, 8]: 24.2 ± 3.9 min
- 25-75% recovery index [1, 8]: 16.1 ± 3.7 min
- time to 25% recovery of T1 [1, 8]: 9.7 ± 1.9 min
- time to 90% recovery of T1 [1, 8]: 35.8 ± 7.1 min
- time to TOF ratio 0.90 [1, 8]: 48.6 ± 8.3 min
- block [1, 9]: 100.0 ± 0.0%
- onset time [1, 9]: 1.0 ± 0.2 min
- reversal of rocuronium-induced block [2]: rapidly reverse rocuronium-induced block
- association constant Ka [3]: about 15.10^6 M^−1
- affinity (association constant) [4]: about the same
- affinity (association constant) [5]: about 9.10^6 M^−1
- affinity (association constant) [6]: about 2.6.10^6 M^−1

SMILES: C=CC[N+]1([C@H]2C[C@H]3[C@@H]4CC[C@H]5C[C@H](O)[C@@H](N6CCOCC6)C[C@]5(C)[C@H]4CC[C@]3(C)[C@H]2OC(C)=O)CCCC1 [rocuronium, rocuronium bromide]
- ED95 ([7]; neuromuscular block, clinical use): 0.30 mg/kg
- Clinical duration (time until return to 25% of control T1) [7, 10]: 22 min
- Time to maximum block [7, 10]: 3.0 min
- Time to >80% block [7, 10]: 1.3 (0.8-6.2) min
- Clinical duration (time until return to 25% of control T1) [7, 11]: 31 min
- Time to maximum block [7, 11]: 1.8 min
- Time to >80% block [7, 11]: 1.0 (0.4-6.0) min
- Clinical duration (time until return to 25% of control T1) ([7]; rocuronium 0.9 mg.kg−1, n = 20): 58 min
- Time to maximum block ([7]; rocuronium 0.9 mg.kg−1, n = 20): 1.4 min
- Time to >80% block ([7]; rocuronium 0.9 mg.kg−1, n = 20): 1.1 (0.3-3.8) min
- Clinical duration (time until return to 25% of control T1) ([7]; rocuronium 1.2 mg.kg−1, n = 18): 67 min
- Time to maximum block ([7]; rocuronium 1.2 mg.kg−1, n = 18): 1.0 min
- Time to >80% block ([7]; rocuronium 1.2 mg.kg−1, n = 18): 0.7 (0.4-1.7) min
